Laboratory results published in article PMC3561256, “Anti-infectious and anti-inflammatory effects of peptide fragments sequentially derived from the antimicrobial peptide centrocin 1 isolated from the green sea urchin, Strongylocentrotus droebachiensis” (AMB Express, 2012).

Experiments:
S. aureus (ATCC 12600) [1] = assay: Minimal microbicidal concentration (MMC99) assay; type: cell-based, Staphylococcus aureus
Experimental: (§1) All the synthesised peptides were tested for their in vitro microbicidal activity against S. aureus (American Type Culture Collection (ATCC) 12600) and P. aeruginosa (ATCC 15442) using a minimal microbicidal concentration (MMC) assay as previously described (Haversen et al. [2010]). Bacteria were cultured in 3.7% brain heart infusion (BHI) broth (Difco, BD Diagnostics, Franklin Lakes, NJ) on a shaker at 250 rpm overnight at 37°C. The culture was diluted 1:10 in fresh 3.7% BHI and incubated for two additional hours to reach log-phase growth. The bacteria were pelleted by centrifugation at 900 × g and suspended in 0.037% BHI to a concentration of 10^7 CFU/mL, estimated by measuring optical density at 600 nm (OD600). To investigate the influence of physiological conditions on microbicidal effect of the peptides, four different assay media were used: 0.037% BHI, 0.037% BHI supplemented with 85 or 150 mM sodium chloride (NaCl), and 50% heat inactivated simulated wound fluid (h.i. SWF) composed of a 50:50 mixture of 0.1% peptone (Oxoid, Basingstoke, UK) in 150 mM NaCl and fetal bovine serum (FBS; PAA Laboratories GmbH, Pasching, Austria), diluted two times in ultra pure water. The peptides were serially diluted by twofold steps from 200 to 1.56 mg/L in the assay media used, and 100 μL of the peptide solutions were mixed with 5 μL bacterial suspensions in a 96 well plate (Nunc, Roskilde, Denmark) and incubated at 37°C for two hours. An aliquot of 5 μL from each well was aspirated and added as drops onto blood agar plates (Columbia agar; Oxoid, Basingstoke, UK) supplemented with 5% defibrinated horse blood (Swedish National Veterinary Institute (SVA), Uppsala, Sweden), and the plates were incubated overnight at 37°C. All samples were processed as duplicates. The minimal test compound concentration causing ≥99% reduction of bacteria was defined as the MMC99. The concentration of the bacterial suspension used in the assay was confirmed by viable count estimation on blood agar plates (Oxoid).
(§2) CEN1 HC was further screened for microbicidal activity against a panel of microbial strains using the MMC99 assay, as described above, except using only two different assay media; 0.037% BHI and 50% h.i. SWF. The following microbial strains were tested for sensitivity: S. aureus (ATCC 12600), MRSA (ATCC 33591), Staphylococcus epidermidis (ATCC 12228), Streptococcus pyogenes (ATCC 12344), Propionibacterium acnes (ATCC 6919) Escherichia coli (ATCC 11775), P. aeruginosa (ATCC 15442), Klebsiella pneumoniae (Culture collection, University of Gothenburg (CCUG) 59413, clinical isolate resistant to penicillins, cephalosporins, aztreonam and carbapenems, with the reference strain ATCC 13883), Acinetobacter baumannii (CCUG 58437, clinical isolate resistant to tobramycin, trimsulfa, ciprofloxacin, cefotaxim, ceftazidim, meropenem, pipera/tazobactam, with the reference strain ATCC 19606) and the yeast strain Candida albicans (ATCC 64549). Mupirocin (GlaxoSmithKline) and fusidic acid (LEO Pharma) were used as comparative control antibiotics.

[2] = system: P. aeruginosa (ATCC 15442); assay: Minimal microbicidal concentration (MMC99) assay; type: cell-based, Pseudomonas aeruginosa; details: for MMC99, P. aeruginosa ATCC 15442, 0.037% BHI / MMC99, P. aeruginosa ATCC 15442, 50% h.i. SWF: Table 3 panel
Experimental: as §1, §2

MRSA (ATCC 33591) [3] = assay: Minimal microbicidal concentration (MMC99) assay; type: cell-based, methicillin-resistant S. aureus; details: Table 3 panel, up to 200 mg/L, duplicates, maximum of at least two independent experiments
Experimental: as §1
CEN1 HC was further screened for microbicidal activity against a panel of microbial strains using the MMC99 assay, as described above, except using only two different assay media; 0.037% BHI and 50% h.i. SWF. […]

[4] = system: Acinetobacter baumannii (CCUG 58437); assay: Minimal microbicidal concentration (MMC99) assay; type: cell-based; details: Table 3 panel, multiresistant clinical isolate, up to 200 mg/L, duplicates, maximum of at least two independent experiments
Experimental: as §1, §2

[5] = system: Candida albicans (ATCC 64549); assay: Minimal microbicidal concentration (MMC99) assay; type: cell-based; details: Table 3 panel, yeast, up to 200 mg/L, duplicates, maximum of at least two independent experiments
Experimental: as §1, §2

[6] = system: Escherichia coli (ATCC 11775); assay: Minimal microbicidal concentration (MMC99) assay; type: cell-based; details: Table 3 panel, up to 200 mg/L, duplicates, maximum of at least two independent experiments
Experimental: as §1, §2

[7] = system: Klebsiella pneumoniae (CCUG 59413); assay: Minimal microbicidal concentration (MMC99) assay; type: cell-based; details: Table 3 panel, multiresistant clinical isolate, up to 200 mg/L, duplicates, maximum of at least two independent experiments
Experimental: as §1, §2

[8] = system: Staphylococcus epidermidis (ATCC 12228); assay: Minimal microbicidal concentration (MMC99) assay; type: cell-based; details: Table 3 panel, up to 200 mg/L, duplicates, maximum of at least two independent experiments
Experimental: as §1, §2

[9] = system: Streptococcus pyogenes (ATCC 12344); assay: Minimal microbicidal concentration (MMC99) assay; type: cell-based; details: Table 3 panel, up to 200 mg/L, duplicates, maximum of at least two independent experiments
Experimental: as §1, §2

[10] = system: Propionibacterium acnes (ATCC 6919); assay: Minimal microbicidal concentration (MMC99) assay; type: cell-based; details: Table 3 panel, up to 200 mg/L, duplicates, maximum of at least two independent experiments
Experimental: as §1, §2

S. aureus (ATCC 12600) [11] = assay: In vitro multistep resistance assay (MMC99 after passages); type: cell-based, Staphylococcus aureus
Experimental: (§3) S. aureus (ATCC 12600) and MRSA (ATCC 33591) were cultured according to the protocol described above and diluted to 10^8 CFU/mL in 0.037% BHI as estimated by measuring OD600. The multistep resistance assay was performed as previously described (Kosowska-Shick et al. [2006]). Peptide dilutions were prepared in twofold dilution steps in the concentration range from 0.75 mg/L to 96 mg/L in a volume of 1 mL using 0.37% BHI medium. The same peptide concentration range was used during all passages and new peptide dilutions were prepared each day from stock solutions. Mupirocin (Applichem), the active substance in the conventional topical antibiotic Bactroban, was used as a comparator. The antibiotic control was handled in the same way as the peptides except that the concentration range of mupirocin was 0.003 mg/L to 3 mg/L.
(§4) An aliquot of 10 μL (10^8 CFU/mL) of the bacterial suspension was added to the peptide dilutions, to the positive antibiotic control, and to a negative control incubated without peptide, and the suspensions were incubated at 37°C for 24 h. Turbidity of the overnight cultures was determined by OD600 measurements. The OD600 of bacteria/peptide suspensions was calculated by subtracting the OD600 of the peptide mixed with medium from the OD600 measured on the overnight cultures. […]

MRSA (ATCC 33591) [12] = assay: as above; type: cell-based, methicillin-resistant S. aureus
Experimental: as §3, §4

[13] = Table 3 panel, up to 200 mg/L, duplicates, maximum of at least two independent experiments
[14] = up to 200 mg/L, duplicates, maximum of at least two independent experiments
[15] = after 14 days of cultivation under selection pressure, 0.37% BHI, 24 h passages
[16] = multistep resistance assay, before passaging (day 0)
[17] = Table 2 screen, medium 0.037% BHI + 85 mM NaCl, 2 h at 37°C, up to 200 mg/L, duplicates, maximum of at least two independent experiments
[18] = Table 2 screen, medium 0.037% BHI + 150 mM NaCl, 2 h at 37°C, up to 200 mg/L, duplicates, maximum of at least two independent experiments

Molecule: CC(=O)O[C@H]1C[C@@]2(C)[C@@H](C[C@@H](O)[C@H]3[C@@]4(C)CC[C@@H](O)[C@@H](C)[C@@H]4CC[C@@]32C)/C1=C(\CCC=C(C)C)C(=O)O [fusidic acid]
- MMC99, S. aureus ATCC 12600, 50% h.i. SWF (S. aureus (ATCC 12600) [1]; [13]): 6.3 mg/L
- MMC99, P. aeruginosa ATCC 15442, 0.037% BHI [2, 14]: >200 mg/L
- MMC99, P. aeruginosa ATCC 15442, 50% h.i. SWF [2, 14]: >200 mg/L
- MMC99, MRSA ATCC 33591, 0.037% BHI (MRSA (ATCC 33591) [3]): 6.3 mg/L
- MMC99, MRSA ATCC 33591, 50% h.i. SWF (MRSA (ATCC 33591) [3]): 6.3 mg/L
- MMC99, A. baumannii CCUG 58437, 0.037% BHI [4]: >200 mg/L
- MMC99, A. baumannii CCUG 58437, 50% h.i. SWF [4]: >200 mg/L
- MMC99, C. albicans ATCC 64549, 0.037% BHI [5]: >200 mg/L
- MMC99, C. albicans ATCC 64549, 50% h.i. SWF [5]: >200 mg/L
- MMC99, E. coli ATCC 11775, 0.037% BHI [6]: >200 mg/L
- MMC99, E. coli ATCC 11775, 50% h.i. SWF [6]: >200 mg/L
- MMC99, K. pneumoniae CCUG 59413, 0.037% BHI [7]: >200 mg/L
- MMC99, K. pneumoniae CCUG 59413, 50% h.i. SWF [7]: >200 mg/L
- MMC99, S. epidermidis ATCC 12228, 0.037% BHI [8]: 6.3 mg/L
- MMC99, S. epidermidis ATCC 12228, 50% h.i. SWF [8]: 6.3 mg/L
- MMC99, S. pyogenes ATCC 12344, 0.037% BHI [9]: >200 mg/L
- MMC99, S. pyogenes ATCC 12344, 50% h.i. SWF [9]: >200 mg/L

Molecule: C/C(=C\C(=O)OCCCCCCCCC(=O)O)C[C@@H]1OC[C@H](C[C@@H]2O[C@H]2[C@@H](C)[C@H](C)O)[C@@H](O)[C@H]1O [mupirocin, Mupirocin]
- MMC99, S. aureus ATCC 12600, 0.037% BHI (S. aureus (ATCC 12600) [1]; Table 3 panel, 0.037% BHI, up to 200 mg/L, duplicates, maximum of at least two independent experiments, comparators Bactroban 2% ointment, Fucidin 2% cream): 3.1 mg/L
- MMC99, S. aureus ATCC 12600, 50% h.i. SWF (S. aureus (ATCC 12600) [1]; [13]): 3.1 mg/L
- MMC99, P. aeruginosa ATCC 15442, 0.037% BHI [2, 14]: >200 mg/L
- MMC99, P. aeruginosa ATCC 15442, 50% h.i. SWF [2, 14]: >200 mg/L
- MMC99, MRSA ATCC 33591, 0.037% BHI (MRSA (ATCC 33591) [3]): 3.1 mg/L
- MMC99, MRSA ATCC 33591, 50% h.i. SWF (MRSA (ATCC 33591) [3]): 3.1 mg/L
- MMC99, A. baumannii CCUG 58437, 0.037% BHI [4]: >200 mg/L
- MMC99, A. baumannii CCUG 58437, 50% h.i. SWF [4]: >200 mg/L
- MMC99, C. albicans ATCC 64549, 0.037% BHI [5]: >200 mg/L
- MMC99, C. albicans ATCC 64549, 50% h.i. SWF [5]: >200 mg/L
- MMC99, E. coli ATCC 11775, 0.037% BHI [6]: >200 mg/L
- MMC99, E. coli ATCC 11775, 50% h.i. SWF [6]: >200 mg/L
- MMC99, K. pneumoniae CCUG 59413, 0.037% BHI [7]: >200 mg/L
- MMC99, K. pneumoniae CCUG 59413, 50% h.i. SWF [7]: >200 mg/L
- MMC99, P. acnes ATCC 6919, 0.037% BHI ([10]; 0.037% BHI): >200 mg/L
- MMC99, P. acnes ATCC 6919, 50% h.i. SWF ([10]; 50% h.i. SWF): >200 mg/L
- MMC99, S. epidermidis ATCC 12228, 0.037% BHI [8]: 3.1 mg/L
- MMC99, S. epidermidis ATCC 12228, 50% h.i. SWF [8]: 3.1 mg/L
- MMC99, S. pyogenes ATCC 12344, 0.037% BHI [9]: 6.3 mg/L
- MMC99, S. pyogenes ATCC 12344, 50% h.i. SWF [9]: 3.1 mg/L
- Concentration killing ≥99% of the bacteria (MMC99), day 14 (S. aureus (ATCC 12600) [11]; [15]): 24 mg/L
- Concentration killing ≥99% of the bacteria (MMC99), day 0 (S. aureus (ATCC 12600) [11]; [16]): 3 mg/L
- Concentration killing ≥99% of the bacteria (MMC99), day 14 (MRSA (ATCC 33591) [12]; [15]): > 384 mg/L
- Concentration killing ≥99% of the bacteria (MMC99), day 0 (MRSA (ATCC 33591) [12]; [16]): 3 mg/L

Molecule: GW(Br)FKKTFHKVSHAVKSGIHA [CEN1 HC-Br (1–20), C-terminal truncated variant of CEN1 HC-Br]
- S. aureus MMC99, 0.037% BHI + 85 mM NaCl (S. aureus (ATCC 12600) [1]; [17]): >200 mg/L
- S. aureus MMC99, 0.037% BHI + 150 mM NaCl (S. aureus (ATCC 12600) [1]; [18]): >200 mg/L
- S. aureus MMC99, 0.037% BHI (S. aureus (ATCC 12600) [1]; Table 2 screen, medium 0.037% BHI, ≥99% reduction of bacteria, 2 h at 37°C, tested up to 200 mg/L, duplicates, maximum value from at least two independent experiments): 12.5 mg/L
- S. aureus MMC99, 0.037% BHI with 85 mM or 150 mM NaCl (S. aureus (ATCC 12600) [1]; text summary over both NaCl concentrations of Table 2a): ≥ 200 mg/L
- P. aeruginosa MMC99, 0.037% BHI + 85 mM NaCl [2, 17]: 12.5 mg/L
- P. aeruginosa MMC99, 0.037% BHI + 150 mM NaCl [2, 18]: 25 mg/L
- P. aeruginosa MMC99, 0.037% BHI ([2]; Table 2 screen, medium 0.037% BHI, 2 h at 37°C, up to 200 mg/L, duplicates, maximum of at least two independent experiments): 12.5 mg/L
- P. aeruginosa MMC99, 0.037% BHI with 85 mM or 150 mM NaCl ([2]; text summary over both NaCl concentrations of Table 2b, compared to 0.037% BHI only): 12.5 to 100.0 mg/L
